Experimental data: PMC7093416, “Selective USP7 inhibition elicits cancer cell killing through a p53-dependent mechanism” (Scientific Reports, 2020)

Tested on: panel of 484 cancer cell lines
Test: PRISM cancer cell line profiling, 5 days
Format: cell-based
Set-up: AUC: unit not given beside the values
Method: Cancer cell line profiling was performed using the Broad’s PRISM platform. Cell treatment and data analysis were performed as described in Yu et al[42]. Raw Luminex signal was converted to AUC values for each cell line as described. The resulting AUC profile for each compound was modeled against DepMap using the limma package in R[71]. Because hotspot mutation analysis was performed against DepMap, TP53 annotations in Fig. 6c,d are directly from DepMap.

## CN1CCN(CCC(=O)Nc2ccc3c(=O)n(CC4(O)CCN(C(=O)[C@H](CCCNC(=O)c5ccc6c(Cl)c7c(nc6c5)CCCC7)Cc5ccccc5)CC4)cnc3c2)CC1 [XL177B]
RT112_URINARY_TRACT
  AUC: 0.9816
RVH421_SKIN
  AUC: 0.8995
S117_SOFT_TISSUE
  AUC: 0.9955
SBC5_LUNG
  AUC: 1.053
SCABER_URINARY_TRACT
  AUC: 1.101
SCC25_UPPER_AERODIGESTIVE_TRACT
  AUC: 0.9004
SF126_CENTRAL_NERVOUS_SYSTEM
  AUC: 0.9271
SF295_CENTRAL_NERVOUS_SYSTEM
  AUC: 1.235
SF539_CENTRAL_NERVOUS_SYSTEM
  AUC: 0.9498
SH4_SKIN
  AUC: 0.9224
SH10TC_STOMACH
  AUC: 1.086
SIMA_AUTONOMIC_GANGLIA
  AUC: 1.191
SJSA1_BONE
  AUC: 1.13
SKES1_BONE
  AUC: 0.9809
SKHEP1_LIVER
  AUC: 0.9481
SKLU1_LUNG
  AUC: 1.195
SKMEL2_SKIN
  AUC: 0.945
SKMEL3_SKIN
  AUC: 1.224
SKMEL5_SKIN
  AUC: 1.137
SKMEL24_SKIN
  AUC: 1.275
SKMEL30_SKIN
  AUC: 1.1049
SKMES1_LUNG
  AUC: 1.035
SKNAS_AUTONOMIC_GANGLIA
  AUC: 1.162
SKNBE2_AUTONOMIC_GANGLIA
  AUC: 0.9661
SKOV3_OVARY
  AUC: 1.113
SKUT1_SOFT_TISSUE
  AUC: 1.098
SNB75_CENTRAL_NERVOUS_SYSTEM
  AUC: 1.029
SNGM_ENDOMETRIUM
  AUC: 1.214
SNU46_UPPER_AERODIGESTIVE_TRACT
  AUC: 1.023
SNU61_LARGE_INTESTINE
  AUC: 1.357
SNU81_LARGE_INTESTINE
  AUC: 1.469
SNU213_PANCREAS
  AUC: 0.9253
SNU245_BILIARY_TRACT
  AUC: 1.172
SNU308_BILIARY_TRACT
  AUC: 1.2193
SNU398_LIVER
  AUC: 1.038
SNU407_LARGE_INTESTINE
  AUC: 0.8767
SNU410_PANCREAS
  AUC: 1.127
SNU423_LIVER
  AUC: 1.115
SNU449_LIVER
  AUC: 0.9807
SNU466_CENTRAL_NERVOUS_SYSTEM
  AUC: 0.8672
SNU601_STOMACH
  AUC: 1.056
SNU668_STOMACH
  AUC: 0.9502
SNU685_ENDOMETRIUM
  AUC: 0.9823
SNU719_STOMACH
  AUC: 1.037
SNU738_CENTRAL_NERVOUS_SYSTEM
  AUC: 1.115
SNU761_LIVER
  AUC: 1.164
SNU840_OVARY
  AUC: 1.115
SNU869_BILIARY_TRACT
  AUC: 1.118
SNU886_LIVER
  AUC: 1.231
SNU1041_UPPER_AERODIGESTIVE_TRACT
  AUC: 1.134
SNU1066_UPPER_AERODIGESTIVE_TRACT
  AUC: 1.18
SNU1076_UPPER_AERODIGESTIVE_TRACT
  AUC: 0.9825
SNU1077_ENDOMETRIUM
  AUC: 1.083
SNU1079_BILIARY_TRACT
  AUC: 1.166
SNU1105_CENTRAL_NERVOUS_SYSTEM
  AUC: 1.105
SNU1196_BILIARY_TRACT
  AUC: 1.09
SNU1214_UPPER_AERODIGESTIVE_TRACT
  AUC: 0.9564
SNUC2A_LARGE_INTESTINE
  AUC: 1.042
SNUC4_LARGE_INTESTINE
  AUC: 1.117
SNUC5_LARGE_INTESTINE
  AUC: 1.097
SQ1_LUNG
  AUC: 1.099
SUIT2_PANCREAS
  AUC: 1.021
SW480_LARGE_INTESTINE
  AUC: 1.084
SW579_THYROID
  AUC: 1.209
SW620_LARGE_INTESTINE
  AUC: 1.165
SW780_URINARY_TRACT
  AUC: 1.236
SW837_LARGE_INTESTINE
  AUC: 1.0717
SW900_LUNG
  AUC: 1.235
SW948_LARGE_INTESTINE
  AUC: 1.132
SW1088_CENTRAL_NERVOUS_SYSTEM
  AUC: 1.121
SW1271_LUNG
  AUC: 1.015
SW1353_BONE
  AUC: 0.6793
SW1573_LUNG
  AUC: 1.097
SW1710_URINARY_TRACT
  AUC: 1.102
SW1990_PANCREAS
  AUC: 1.083
T3M10_LUNG
  AUC: 1.12
T24_URINARY_TRACT
  AUC: 1.071
T47D_BREAST
  AUC: 1.066
T98G_CENTRAL_NERVOUS_SYSTEM
  AUC: 0.9969
TCCPAN2_PANCREAS
  AUC: 1.118
TCCSUP_URINARY_TRACT
  AUC: 1.104
TE1_OESOPHAGUS
  AUC: 1.328
TE4_OESOPHAGUS
  AUC: 1.033
TE5_OESOPHAGUS
  AUC: 0.9565
TE6_OESOPHAGUS
  AUC: 1.06
TE8_OESOPHAGUS
  AUC: 0.9218
TE9_OESOPHAGUS
  AUC: 1.298
TE10_OESOPHAGUS
  AUC: 0.9856
TE11_OESOPHAGUS
  AUC: 1.076
TEN_ENDOMETRIUM
  AUC: 0.9874
TM31_CENTRAL_NERVOUS_SYSTEM
  AUC: 1.105
TM87_SOFT_TISSUE
  AUC: 1.039
TOV21G_OVARY
  AUC: 0.7718
TOV112D_OVARY
  AUC: 0.9778
TT2609C02_THYROID
  AUC: 1.023
TT_OESOPHAGUS
  AUC: 1.189
TT_THYROID
  AUC: 0.9532
TUHR4TKB_KIDNEY
  AUC: 1.093
U2OS_BONE
  AUC: 1.264
U118MG_CENTRAL_NERVOUS_SYSTEM
  AUC: 1.3332
U251MG_CENTRAL_NERVOUS_SYSTEM
  AUC: 1.04
UACC62_SKIN
  AUC: 0.9925
UACC257_SKIN
  AUC: 0.9688
UBLC1_URINARY_TRACT
  AUC: 1.0896
UMUC1_URINARY_TRACT
  AUC: 1.045
UO31_KIDNEY
  AUC: 1.143
VMCUB1_URINARY_TRACT
  AUC: 0.9508
VMRCRCW_KIDNEY
  AUC: 1.069
VMRCRCZ_KIDNEY
  AUC: 1.083
WM88_SKIN
  AUC: 1.093
WM793_SKIN
  AUC: 1.133
WM983B_SKIN
  AUC: 1.143
WM1799_SKIN
  AUC: 0.7611
WM2664_SKIN
  AUC: 1.168
YAPC_PANCREAS
  AUC: 1.439
YD8_UPPER_AERODIGESTIVE_TRACT
  AUC: 1.127
YD10B_UPPER_AERODIGESTIVE_TRACT
  AUC: 0.9769
YD15_SALIVARY_GLAND
  AUC: 0.9723
YD38_UPPER_AERODIGESTIVE_TRACT
  AUC: 1.117
YH13_CENTRAL_NERVOUS_SYSTEM
  AUC: 1.068
YKG1_CENTRAL_NERVOUS_SYSTEM
  AUC: 1.107
ZR751_BREAST
  AUC: 0.9538
